How the values were obtained:
[1] = tested on: experimentally induced asthma; test: OVA-induced asthma in mice (methacholine Penh, BAL cell count); type: in vivo, Balb/c mice
Experimental: Effect of potassium 2,5-diacetoxybenzene sulfonate (DABS) on bronchoconstriction in asthmatic mice treated with methacholine. All the mice were exposed to nebulized methacholine (MC; 5 and 20 mg/ml). Bronchoconstriction was determined as the enhanced pause. (Penh), calculated as described in the corresponding example (example 13). As control, the background and the exposure to nebulized saline (0.9% NaCl) are shown. *p<0.05 vs. saline.
Effect of potassium 2,5-diacetoxybenzene sulfonate (DABS) on the inflammatory cell count in the bronchoalveolar lavage (BAL) in asthmatic mice. The data are expressed as mean±SEM of the total number of detected cells in the BAL of the right lung of each animal. *p<0.05, ***p<0.001 vs. group treated with vehicle.
6-9 week old Balb/c mice were used. The ovoalbumin (OVA)/aluminum complex was obtained after dissolving OVA (500 μg/mL) in PBS, and mixing it with an equal volume of 10% aluminum potassium sulfate at pH 6.5 for 1 hour. After centrifuging the pellet (750×g for 5 minutes) the OVA/aluminum pellet was resuspended in distilled water. On day 0, the mice were injected intraperitoneally injected with 100 μg of OVA/aluminum. Eight days later, the mice were anesthetized and exposed to 250 μg of OVA. Later, they were administered 125 μg of OVA on days 15, 18 and 21. […].
The following treatments were administered to the animals: (i.p.) vehicle from day 2, potassium 2,5-diacetoxybencene sulfonate (DABS; 100 mg/kg/day, i.p.) from day 2, DABS (100 mg/kg/day, i.p.) from day 8 and Combivent (20 μg/200 μg in aerosol) on days 20, 21 and 22, the latter as a reference treatment.
In order to evaluate the pulmonary function, the response to methacholine in conscious mice was determined, 24 hours after the last exposure to OVA. The mice were exposed to increasing methacholine concentrations (5 and 20 mg/mL) in the form of aerosol using an ultrasonic nebulizer during 2 minutes. The degree of bronchoconstriction was expressed as the enhanced pause (Penh) which correlates to the mouse air resistance, impedance and pressure within the pleura. The Penh was calculated using the formula Penh=[(Te/Rt−1)×(PEF/PIF)], where Te is expiratory time, Rt is relaxation time, PEF is peak expiratory flow and PIF is peak inspiratory flow×0.67 coefficient.
After measuring airway hyperreactivity, the mice were sacrificed and the bronchoalveolar lavage (BAL) of the right lung was collected. The total number of cells in the BAL fluid was determined.

[2] = biological target: fibroblast growth factor-1 (FGF-1) (Homo sapiens, UniProt P05230); test: Co-crystal structure with fibroblast growth factor-1; type: binding
Source text: (§1) FIG. 24. 2-acetoxy-5-hydroxybenzenesulfonic acid co-crystallized with fibroblast growth factor-1. […] The compound occupies a place that is very close to that described occupied by 2,5-dihydroxybenzenesulfonic acid, the aromatic ring of which forms a cation-π bond with the N^ε group of lysine 132, which is marked in panel A as reference. […] In panels A and B, the protein surface is colored according to its electrostatic potential (light grey: negative charge; dark grey: positive charge; white: lack of charge).
as §1, with “25. 5-acetoxy-2-hydroxybenzenesulfonic” for “24. 2-acetoxy-5-hydroxybenzenesulfonic”
as §1, with “26. 2,5-diacetoxybenzenesulfonic” for “24. 2-acetoxy-5-hydroxybenzenesulfonic”
Based on the crystal diffraction of the FGF-1:2-acetoxy-5-hydroxybenzene sulfonic acid, FGF-1:5-acetoxy-2-hydroxybenzene sulfonic acid and FGF-1:2,5-diacetoxybenzene sulfonic acid complexes, the structures of the complexes were calculated and represented. FIGS. 24, 25 and 26, which show the surface of the dyed protein according to its electrostatic potential (light grey: negative charge; dark grey: positive charge; white: lack of charge), show the manner in which 2-acetoxy-5-hydroxybenzene sulfonic acid, 5-acetoxy-2-hydroxybenzene sulfonic acid and 2,5-diacetoxybenzene sulfonic acid interact, respectively, with FGF-1.

infantile hemangioma = test: Topical cream in a child with infantile hemangioma; type: in vivo, human; details: cream 2.5%, topical twice a day, 1, 2 and 3 months, one child
Source text: Photographs of a child showing the effects of the topical treatment with a cream comprising 2,5-dihydroxybenzenesulfonic (DHBS) (2.5%) in a baby suffering infantile hemangioma.
The cream comprising 2,5-dihydroxybenzene sulfonic (2.5%) was topically applied twice a day for 3 months on the face of a child suffering from infantile hemangioma.

[3] = tested on: human retinal endothelial cells (HREC); test: Proliferation of human retinal endothelial cells (crystal violet); type: cell-based; details: 100 μM, 72 hours; DHBS as calcium salt
Experimental: (§2) Primary cultures of human retinal endothelial cells (HREC) were used. Cells were obtained from Cell Systems (Virginia, USA) and subcultured with CSC complete medium (Cell Systems). Cells at 2 to 5 passages were seeded in 24-well plates at 7,500 cells/well density and, once attached, the cells were treated or not treated (controls) with 2A-5HBS (500 and 1000 μM) or 5A-2HBS (500 and 1000 μM) and they were allowed to proliferate for 72 hours, with daily medium changes. After that, the proliferation of HREC was evaluated by staining the fixed cells with crystal violet. The number of cells is proportional to the amount of retained dye, which was spectrophotometrically determined by measuring absorbance at 595 nm after removing the dye from the cells. Data are expressed as the percentage of absorbance at 595 nm obtained in control conditions. Data were obtained from two different experiments performed in triplicate.
as §2, with “2,5-DHCME (50” for “2A-5HBS (500”, “100” for “1000 μM) or 5A-2HBS (500 and 1000”, “changes. Under the same conditions, other cultures were treated with calcium 2,5-dihydroxybenzenesulfonate (DHBS; 100 μM) for comparison.” for “changes.”

fibroblast growth factor-1 (FGF-1), sequence (P05230 whole entry, species assumed): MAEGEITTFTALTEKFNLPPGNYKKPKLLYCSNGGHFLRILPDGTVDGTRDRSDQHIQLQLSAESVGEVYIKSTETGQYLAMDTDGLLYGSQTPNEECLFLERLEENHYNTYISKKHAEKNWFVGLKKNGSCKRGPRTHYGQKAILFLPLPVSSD

Row | SMILES | methacholine induced bronchoconstriction (Penh) ([1]; 100 mg/kg/day i.p. from day 2) | methacholine induced bronchoconstriction (Penh) ([1]; 100 mg/kg/day i.p. from day 8) | presence of BAL cells in asthmatic mice ([1]; 100 mg/kg/day i.p., vs vehicle) | BAL cell reduction compared with Combivent ([1]; DABS 100 mg/kg/day i.p., Combivent aerosol days 20-22) | increase of the Penh after exposure to MC vs saline ([1]; MC 5 and 20 mg/ml, Combivent 20 μg/200 μg aerosol days 20-22 or DABS 100 mg/kg/day i.p.) | binding site on FGF-1 ([2]; crystal diffraction of the complex) | acetoxyl groups of the compound when bound to FGF-1 ([2]; crystal diffraction, electron density contoured at 1σ) | appearance of the hemangioma lesion (infantile hemangioma) | HREC proliferation [3]
1 | CC(=O)Oc1ccc(OC(C)=O)c(S(=O)(=O)[O-])c1.[K+] [DABS, potassium 2,5-diacetoxybenzene sulfonate] | completely prevented | completely prevented | significantly reduced | even more than the treatment with Combivent | do not show a significant increase of the Penh | very close to the one that has been described occupied by 2,5-dihydroxybenzene sulfonic acid | conserve the acetoxyl groups | – | –
2 | O=S(=O)(O)c1cc(O)ccc1O [DHBS, 2,5-dihydroxybenzene sulfonic acid] | – | – | – | – | – | – | – | substantial recovery of the lesion | failed to significantly affect HREC proliferation

Reference: US9198886B2, “Use of 2,5-dihydroxybenzene for the treatment of ocular diseases” (priority 2006, dated 2015)
